This is an account of results in ChEMBL document CHEMBL2346635, “6-Oxo and 6-thio purine analogs as antimycobacterial agents” (Bioorg Med Chem, 2013).

≈ marks a conversion by molar mass, not a printed value.

Common to all, as to format: functional
Experiment [1] has as its system Mycobacterium tuberculosis. In words: Antimycobacterial activity against isoniazid-resistant Mycobacterium tuberculosis assessed as growth inhibition by Alamar blue assay. A general note: Alamar Blue is a resazurin reagent that responds to reducing activity.
In experiment [2] the test system is Mycobacterium tuberculosis. Briefly: Antimycobacterial activity against kanamycin-resistant Mycobacterium tuberculosis assessed as growth inhibition by Alamar blue assay.
In experiment [3] the test system is Mycobacterium tuberculosis. In words: Antimycobacterial activity against ethambutol-resistant Mycobacterium tuberculosis assessed as growth inhibition by Alamar blue assay.
For experiment [4], the system named is Mycobacterium tuberculosis. In words: Antimycobacterial activity against ciprofloxacin-resistant Mycobacterium tuberculosis assessed as growth inhibition by Alamar blue assay.
For experiment [5], the system named is Mycobacterium tuberculosis. In words: Antimycobacterial activity against rifampin-resistant Mycobacterium tuberculosis assessed as growth inhibition by Alamar blue assay.
For experiment [6], the system named is Mycobacterium tuberculosis. Briefly: Antimycobacterial activity against thiacetazone-resistant Mycobacterium tuberculosis assessed as growth inhibition by Alamar blue assay.

Broadly, the MIC90 is an inhibitory concentration at the 90% level, which refers to growth in some studies and to a panel of isolates in others. Regarding `CCCCCCCCCCSc1ncnc2c1ncn2CC(=O)OCC`, the MIC90 in experiment [1] amounted to 12.5 mg/L (≈ 33 µM); in experiment [2], 6.25 mg/L (≈ 16.5 µM); in experiment [3], 6.25 mg/L (≈ 16.5 µM); in experiment [4], 12.5 mg/L (≈ 33 µM); in experiment [5], 6.25 mg/L (≈ 16.5 µM).
In the case of `CCCCCCCCCCCCSc1ncnc2c1ncn2CC(=O)OCC`, the MIC90 amounted to 1.56 mg/L (≈ 3.84 µM) in experiment [1]; 3.13 mg/L (≈ 7.7 µM) in experiment [3]; 1.56 mg/L (≈ 3.84 µM) in experiment [4]; 3.13 mg/L (≈ 7.7 µM) in experiment [5]; 3.13 mg/L (≈ 7.7 µM) in experiment [6].
